Source: ChEMBL document CHEMBL1201862, “PubChem BioAssay data set” (2004)
pIC50: −log10 of the molar value. Active and inactive are the calls of the source.

Key:
Phosphomannomutase 2 = Phosphomannomutase 2 (Homo sapiens, UniProt O15305); test: Counter screen SAR assay for PMM2 inhibitors via a fluorescence intensity assay. [Related pubchem assays (depositor defined):AID1545, AID1574]
[1] = biological target: T1, Heat shock factor protein 1 (Mus musculus, UniProt P38532); test: enhancement of HSF1-driven luciferase signal – cell-based, NIH3T3, luminescence, dose retest, confirmation (AID 435004); format: functional;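 also: stress induced by proteasome inhibitor MG132 added 30 min after compound; luciferase reporter driven by HSF1 response element in NIH3T3 cells; actives raise luminescence as potentiators of the MG132 stress response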
T1 sequence (P38532 whole entry): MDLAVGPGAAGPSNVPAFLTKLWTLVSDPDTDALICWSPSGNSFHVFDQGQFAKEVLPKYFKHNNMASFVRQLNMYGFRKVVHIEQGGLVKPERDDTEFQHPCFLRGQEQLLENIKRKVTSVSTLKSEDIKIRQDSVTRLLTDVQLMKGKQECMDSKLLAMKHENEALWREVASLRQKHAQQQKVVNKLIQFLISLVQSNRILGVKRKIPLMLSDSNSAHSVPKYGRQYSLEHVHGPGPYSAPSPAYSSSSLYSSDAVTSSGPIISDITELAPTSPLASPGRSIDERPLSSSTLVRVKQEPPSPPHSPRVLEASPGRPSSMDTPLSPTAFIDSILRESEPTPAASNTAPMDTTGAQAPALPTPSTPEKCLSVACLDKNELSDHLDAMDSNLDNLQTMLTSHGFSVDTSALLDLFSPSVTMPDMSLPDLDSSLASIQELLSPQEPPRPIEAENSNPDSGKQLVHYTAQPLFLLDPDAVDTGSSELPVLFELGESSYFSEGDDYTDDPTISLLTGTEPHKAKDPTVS

X-box-binding protein 1 = X-box-binding protein 1 (Homo sapiens, UniProt P17861); format: functional, Cricetulus griseus;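 also: confirmatory dose-response counter-screen serving a CHOP assay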
INS1 = test: INS-1E survival protection against cytokine death – cell-based, luminescence, retest, dose response (AID 449756); format: functional; conditions: Rattus norvegicus;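 also: cell death triggered by IL-1 beta plus TNF-alpha plus IFN-gamma mixture; protective hits raise ATP signal compared with cytokine alone wells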
Paired box protein Pax-8 = Paired box protein Pax-8 (Homo sapiens, UniProt Q06710); test: PAX8 transcriptional activity inhibition in RMG-I – RMG-I cells, luciferase, cherry-pick, dose response (AID 687027); format: functional, cell-based;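 also: luciferase reporter driven by Pax8 target thyroperoxidase promoter measured by SteadyGlo luminescence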
SUMO-activating enzyme = SUMO-activating enzyme (Homo sapiens, UniProt Q9UBT2); test: blockers of UBC9-mediated SUMO conjugation – biochemical, AlphaScreen, SUMOylation inhibitor project, confirmation (AID 2018); format: functional
[2] = biological target: T2, Mannose-6-phosphate isomerase (Homo sapiens, UniProt P34949); test: MPI inhibition at elevated mannose 6-phosphate – biochemical, fluorescence intensity, high mannose 6-phosphate, primary screen (AID 1220)
T2 sequence (P34949 whole entry): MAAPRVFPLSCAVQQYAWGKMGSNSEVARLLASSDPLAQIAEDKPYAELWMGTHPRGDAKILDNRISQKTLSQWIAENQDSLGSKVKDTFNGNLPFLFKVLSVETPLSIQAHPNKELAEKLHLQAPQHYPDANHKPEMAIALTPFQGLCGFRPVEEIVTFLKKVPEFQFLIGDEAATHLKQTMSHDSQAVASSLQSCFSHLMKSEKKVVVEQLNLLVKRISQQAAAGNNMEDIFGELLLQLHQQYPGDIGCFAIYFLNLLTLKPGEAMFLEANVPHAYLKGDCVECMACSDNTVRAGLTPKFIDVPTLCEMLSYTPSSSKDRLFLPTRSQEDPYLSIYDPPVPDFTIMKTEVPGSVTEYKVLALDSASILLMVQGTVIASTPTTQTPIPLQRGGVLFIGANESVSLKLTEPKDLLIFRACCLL

[3] = Trypanosoma cruzi growth suppression in host cells – NIH3T3 host cells, beta-gal luminescence, confirmation (AID 2044); format: functional, cell-based;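 also: intracellular parasites grown in NIH/3T3 mouse fibroblasts as host cells; luminescent beta-galactosidase reporter signal from transgenic T. cruzi replicating inside host cells; inhibitors lower the luminescence signal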
CHO-K1 = test: (§1) Counterscreen for antagonists of the orexin 1 receptor (OX1R; HCRTR1): Homogeneous time resolved fluorescence (HTRF)-based cell-based dose response assay to identify antagonists of the parental CHO-K1 cell line. [Related pubchem assays (depositor defined):AID434989, AID435008, AID463079, AID485270, AID492963, AID492964, AID492965, AID493232, AID504699, AID504701]; format: functional; conditions: Cricetulus griseus
[4] = as §1, with “Fluorescence-based” for “Homogeneous time resolved fluorescence (HTRF)-based”, “cell-based high throughput” for “cell-based”, “CHO” for “CHO-K1”; format: functional
[5] = biological target: T3, Orexin/Hypocretin receptor type 1 (Homo sapiens, UniProt O43613); test: Homogeneous Time Resolved Fluorescence (HTRF)-based cell-based high throughput dose response assay for antagonists of the orexin 1 receptor (OX1R; HCRTR1). [Related pubchem assays (depositor defined):AID434989, AID435008, AID463079, AID485270, AID492963, AID492964, AID492965, AID493232, AID504717, AID504718]; format: functional
T3 sequence (O43613 whole entry): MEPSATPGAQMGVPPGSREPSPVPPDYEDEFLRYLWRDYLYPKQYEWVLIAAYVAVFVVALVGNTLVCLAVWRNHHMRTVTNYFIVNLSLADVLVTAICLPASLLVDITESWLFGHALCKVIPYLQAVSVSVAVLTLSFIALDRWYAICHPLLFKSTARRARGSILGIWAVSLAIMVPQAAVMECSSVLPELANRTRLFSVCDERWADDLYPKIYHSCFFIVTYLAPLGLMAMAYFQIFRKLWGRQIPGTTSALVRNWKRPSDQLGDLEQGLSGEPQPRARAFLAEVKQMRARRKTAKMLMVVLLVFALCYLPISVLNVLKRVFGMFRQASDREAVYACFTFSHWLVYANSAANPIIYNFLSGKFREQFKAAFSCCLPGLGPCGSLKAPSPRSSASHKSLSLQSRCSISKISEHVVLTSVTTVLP

[6] = biological target: T3, Orexin/Hypocretin receptor type 1; test: Fluorescence-based cell-based high throughput dose response assay for antagonists of the orexin 1 receptor (OX1R; HCRTR1). [Related pubchem assays (depositor defined):AID434989, AID435008, AID463079, AID485270, AID492963, AID492964, AID492965, AID493232, AID504717, AID504718]; format: functional
Cytochrome P450 2D6 = Cytochrome P450 2D6 (Homo sapiens, UniProt P10635);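 also: CYP2D6 member of a cytochrome P450 panel assay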
[7] = biological target: T4, Delta-type opioid receptor (Homo sapiens, UniProt P41143); test: HTS Image-Based Screen for Antagonists of the DOR Receptor. [Related pubchem assays (depositor defined):AID1777, AID1785, AID1786, AID2133]; format: functional
Mu-type opioid receptor = Mu-type opioid receptor (Homo sapiens, UniProt P35372); test: HTS Image-Based Screen for Agonists of the MOR Receptor. [Related pubchem assays (depositor defined):AID1777, AID1785, AID1786, AID2133]; format: functional;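 also: imaging of beta-arrestin GFP recruitment into spots after receptor activation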
[8] = biological target: T4, Delta-type opioid receptor; test: HTS Image-Based Screen for Agonists of the DOR Receptor. [Related pubchem assays (depositor defined):AID1777, AID1786, AID2133]; format: functional
[9] = biological target: T5, Kappa-type opioid receptor (Homo sapiens, UniProt P41145); format: functional
Beta-galactosidase = Beta-galactosidase (Escherichia coli, UniProt Q8VNN2); format: functional
[10] = biological target: T5, Kappa-type opioid receptor; format: functional; remark: listed apart in the source
Hexokinase HKDC1 = biological target: T6, Hexokinase HKDC1 (Homo sapiens, UniProt Q2TB90); test: activation of HKDC1 glucose phosphorylation – biochemical, W721R variant, dose response (AID 504730); format: functional
T6 sequence (Q2TB90 whole entry): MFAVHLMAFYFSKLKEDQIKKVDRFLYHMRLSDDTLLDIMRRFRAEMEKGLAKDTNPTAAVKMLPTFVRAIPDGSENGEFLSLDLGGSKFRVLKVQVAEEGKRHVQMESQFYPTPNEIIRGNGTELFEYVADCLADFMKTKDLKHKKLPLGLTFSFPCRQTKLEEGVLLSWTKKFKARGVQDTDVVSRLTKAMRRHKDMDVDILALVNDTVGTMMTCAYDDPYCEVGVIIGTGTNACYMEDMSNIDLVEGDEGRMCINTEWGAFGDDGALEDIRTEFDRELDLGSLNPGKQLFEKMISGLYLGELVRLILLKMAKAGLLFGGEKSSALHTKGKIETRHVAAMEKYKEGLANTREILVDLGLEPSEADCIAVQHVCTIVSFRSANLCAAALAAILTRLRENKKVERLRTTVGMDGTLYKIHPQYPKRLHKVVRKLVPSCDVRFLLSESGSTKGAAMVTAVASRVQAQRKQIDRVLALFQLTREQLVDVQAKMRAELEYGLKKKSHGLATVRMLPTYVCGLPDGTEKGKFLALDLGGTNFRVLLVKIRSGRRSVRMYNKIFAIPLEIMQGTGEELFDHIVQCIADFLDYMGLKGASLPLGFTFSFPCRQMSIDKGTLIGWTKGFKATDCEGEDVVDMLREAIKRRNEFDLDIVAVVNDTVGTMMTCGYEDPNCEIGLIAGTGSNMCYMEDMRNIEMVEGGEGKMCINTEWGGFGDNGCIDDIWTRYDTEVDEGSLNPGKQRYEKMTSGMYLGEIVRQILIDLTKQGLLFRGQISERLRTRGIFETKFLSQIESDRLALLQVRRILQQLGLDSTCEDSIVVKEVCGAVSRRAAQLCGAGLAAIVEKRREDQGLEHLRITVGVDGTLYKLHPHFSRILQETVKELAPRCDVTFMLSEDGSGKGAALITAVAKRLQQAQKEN

Nonstructural protein 1 = Nonstructural protein 1 (Influenza A virus, UniProt Q194T2); format: functional, Influenza A virus (A/California/07/2009(H1N1))
Hexokinase-1 = Hexokinase-1 (Homo sapiens, UniProt P19367); test: HK1 enzyme activation by HKDC1 hits – biochemical, selectivity assay for HKDC1 activator project, dose response (AID 504762); format: functional
[11] = biological target: T7, Tyrosine-protein phosphatase non-receptor type 7 (Homo sapiens, UniProt P35236); format: functional
T7 sequence (P35236 whole entry): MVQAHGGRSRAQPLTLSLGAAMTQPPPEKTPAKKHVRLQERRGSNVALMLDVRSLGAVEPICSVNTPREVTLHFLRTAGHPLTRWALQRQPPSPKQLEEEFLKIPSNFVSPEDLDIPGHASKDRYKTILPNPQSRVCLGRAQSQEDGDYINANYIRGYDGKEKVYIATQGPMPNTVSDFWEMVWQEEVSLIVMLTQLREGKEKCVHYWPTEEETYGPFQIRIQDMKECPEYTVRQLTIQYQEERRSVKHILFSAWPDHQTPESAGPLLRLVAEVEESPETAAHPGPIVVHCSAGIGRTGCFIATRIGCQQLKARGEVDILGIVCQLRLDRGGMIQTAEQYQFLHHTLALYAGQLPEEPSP

[12] = biological target: T8, Tyrosine-protein phosphatase non-receptor type 22 (Homo sapiens, UniProt Q9Y2R2); format: functional
T8 sequence (Q9Y2R2 whole entry): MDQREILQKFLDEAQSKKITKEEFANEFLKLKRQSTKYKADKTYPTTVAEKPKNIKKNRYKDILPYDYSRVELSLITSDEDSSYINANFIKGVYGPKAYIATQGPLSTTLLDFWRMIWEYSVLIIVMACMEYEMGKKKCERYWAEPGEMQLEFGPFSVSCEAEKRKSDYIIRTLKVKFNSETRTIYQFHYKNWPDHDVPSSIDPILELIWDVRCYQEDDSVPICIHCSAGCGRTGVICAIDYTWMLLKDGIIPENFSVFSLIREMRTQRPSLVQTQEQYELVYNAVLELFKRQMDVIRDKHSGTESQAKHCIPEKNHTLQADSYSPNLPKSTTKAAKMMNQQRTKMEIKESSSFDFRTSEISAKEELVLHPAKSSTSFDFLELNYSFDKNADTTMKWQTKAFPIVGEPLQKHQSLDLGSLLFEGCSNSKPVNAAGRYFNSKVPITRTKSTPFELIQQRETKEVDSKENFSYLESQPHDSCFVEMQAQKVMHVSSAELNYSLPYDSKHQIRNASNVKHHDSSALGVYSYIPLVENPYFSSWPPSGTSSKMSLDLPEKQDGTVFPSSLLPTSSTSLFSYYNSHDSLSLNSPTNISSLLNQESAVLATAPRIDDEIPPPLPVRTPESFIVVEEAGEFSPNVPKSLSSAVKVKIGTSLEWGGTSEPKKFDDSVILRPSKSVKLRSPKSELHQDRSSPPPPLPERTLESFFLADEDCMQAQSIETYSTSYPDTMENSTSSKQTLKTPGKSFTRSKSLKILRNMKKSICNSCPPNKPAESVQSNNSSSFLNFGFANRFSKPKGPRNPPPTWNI

[13] = biological target: T8, Tyrosine-protein phosphatase non-receptor type 22; format: functional; remark: listed apart in the source

Hexokinase-1, sequence (P19367 whole entry): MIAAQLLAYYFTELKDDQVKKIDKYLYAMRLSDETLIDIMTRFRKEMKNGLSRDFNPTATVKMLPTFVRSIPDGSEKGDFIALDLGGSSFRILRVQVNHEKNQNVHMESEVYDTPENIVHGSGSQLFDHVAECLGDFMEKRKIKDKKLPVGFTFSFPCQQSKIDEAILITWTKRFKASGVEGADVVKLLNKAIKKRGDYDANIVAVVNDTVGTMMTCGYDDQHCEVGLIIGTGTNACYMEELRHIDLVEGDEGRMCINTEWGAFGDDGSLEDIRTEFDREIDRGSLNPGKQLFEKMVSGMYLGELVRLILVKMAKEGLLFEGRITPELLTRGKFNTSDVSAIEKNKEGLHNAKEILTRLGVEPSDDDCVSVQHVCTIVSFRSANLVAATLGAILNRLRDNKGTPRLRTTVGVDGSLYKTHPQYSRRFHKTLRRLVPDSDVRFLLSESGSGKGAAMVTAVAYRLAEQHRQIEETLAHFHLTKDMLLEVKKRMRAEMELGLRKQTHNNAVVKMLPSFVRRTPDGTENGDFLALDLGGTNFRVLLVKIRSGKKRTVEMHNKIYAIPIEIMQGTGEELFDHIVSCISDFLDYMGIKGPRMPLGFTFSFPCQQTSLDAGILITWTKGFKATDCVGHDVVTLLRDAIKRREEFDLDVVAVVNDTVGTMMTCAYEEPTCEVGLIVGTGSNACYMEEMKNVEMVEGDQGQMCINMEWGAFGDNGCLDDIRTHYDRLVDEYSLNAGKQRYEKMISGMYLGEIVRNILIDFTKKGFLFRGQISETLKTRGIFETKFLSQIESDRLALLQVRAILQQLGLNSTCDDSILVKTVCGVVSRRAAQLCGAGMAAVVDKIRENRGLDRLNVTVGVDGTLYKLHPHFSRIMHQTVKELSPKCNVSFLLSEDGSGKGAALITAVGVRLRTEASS
T5 sequence (P41145 whole entry): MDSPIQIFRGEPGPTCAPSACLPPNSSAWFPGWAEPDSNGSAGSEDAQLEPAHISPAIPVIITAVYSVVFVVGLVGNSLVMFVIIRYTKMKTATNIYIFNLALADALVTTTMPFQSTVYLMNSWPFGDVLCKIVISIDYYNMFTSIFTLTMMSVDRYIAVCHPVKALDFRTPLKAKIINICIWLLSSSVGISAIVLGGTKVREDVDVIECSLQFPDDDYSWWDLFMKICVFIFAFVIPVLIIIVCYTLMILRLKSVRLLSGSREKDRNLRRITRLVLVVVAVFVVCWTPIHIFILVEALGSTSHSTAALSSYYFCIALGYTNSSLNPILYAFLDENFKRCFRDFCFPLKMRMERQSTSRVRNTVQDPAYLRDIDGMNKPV
T4 sequence (P41143 whole entry): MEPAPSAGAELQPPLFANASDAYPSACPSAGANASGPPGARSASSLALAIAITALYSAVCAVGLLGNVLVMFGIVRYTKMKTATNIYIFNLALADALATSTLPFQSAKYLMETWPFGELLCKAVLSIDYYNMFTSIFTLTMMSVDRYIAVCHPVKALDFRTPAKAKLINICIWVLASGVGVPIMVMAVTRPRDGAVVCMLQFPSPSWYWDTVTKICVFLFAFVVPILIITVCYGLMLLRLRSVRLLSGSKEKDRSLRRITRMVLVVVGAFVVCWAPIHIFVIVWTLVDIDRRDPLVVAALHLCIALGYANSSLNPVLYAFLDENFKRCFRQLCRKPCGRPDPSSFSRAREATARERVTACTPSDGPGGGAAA
X-box-binding protein 1, sequence (P17861 whole entry): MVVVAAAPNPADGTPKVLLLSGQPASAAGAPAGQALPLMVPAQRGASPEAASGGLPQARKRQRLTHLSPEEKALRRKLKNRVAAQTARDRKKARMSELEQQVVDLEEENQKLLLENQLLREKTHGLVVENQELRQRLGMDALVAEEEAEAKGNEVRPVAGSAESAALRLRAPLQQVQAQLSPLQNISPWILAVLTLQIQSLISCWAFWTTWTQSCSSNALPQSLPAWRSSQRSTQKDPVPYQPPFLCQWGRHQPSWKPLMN
Paired box protein Pax-8, sequence (Q06710 whole entry): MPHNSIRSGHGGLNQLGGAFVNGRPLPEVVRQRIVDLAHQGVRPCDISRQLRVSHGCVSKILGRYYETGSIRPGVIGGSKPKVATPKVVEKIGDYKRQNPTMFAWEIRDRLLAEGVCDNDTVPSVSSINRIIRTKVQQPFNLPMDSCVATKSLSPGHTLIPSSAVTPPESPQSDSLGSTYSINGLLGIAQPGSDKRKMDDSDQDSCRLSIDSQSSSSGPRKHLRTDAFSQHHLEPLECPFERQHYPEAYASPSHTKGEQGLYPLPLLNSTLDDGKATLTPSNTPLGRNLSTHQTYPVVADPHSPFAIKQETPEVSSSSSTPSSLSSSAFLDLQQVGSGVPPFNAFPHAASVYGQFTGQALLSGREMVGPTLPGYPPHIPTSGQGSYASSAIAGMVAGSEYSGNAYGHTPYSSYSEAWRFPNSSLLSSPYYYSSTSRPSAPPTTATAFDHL
Mu-type opioid receptor, sequence (P35372 whole entry): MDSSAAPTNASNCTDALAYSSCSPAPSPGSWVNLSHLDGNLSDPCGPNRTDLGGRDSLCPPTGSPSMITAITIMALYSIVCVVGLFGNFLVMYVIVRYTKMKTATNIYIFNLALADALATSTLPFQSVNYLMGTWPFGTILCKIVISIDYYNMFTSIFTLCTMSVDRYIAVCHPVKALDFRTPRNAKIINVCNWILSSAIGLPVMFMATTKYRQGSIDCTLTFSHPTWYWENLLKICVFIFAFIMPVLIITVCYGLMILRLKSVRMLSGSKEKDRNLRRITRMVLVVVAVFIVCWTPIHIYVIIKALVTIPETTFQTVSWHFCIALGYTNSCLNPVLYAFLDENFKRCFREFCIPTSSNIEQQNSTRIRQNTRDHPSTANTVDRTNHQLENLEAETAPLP
Phosphomannomutase 2, sequence (O15305 whole entry): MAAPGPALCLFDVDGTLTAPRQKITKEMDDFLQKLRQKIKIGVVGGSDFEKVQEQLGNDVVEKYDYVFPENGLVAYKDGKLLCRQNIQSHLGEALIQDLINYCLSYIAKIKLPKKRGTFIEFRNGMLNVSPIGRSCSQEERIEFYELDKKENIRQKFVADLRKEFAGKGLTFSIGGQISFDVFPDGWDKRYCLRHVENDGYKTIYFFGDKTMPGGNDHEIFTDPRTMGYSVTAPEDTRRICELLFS
Beta-galactosidase, sequence (Q8VNN2 whole entry): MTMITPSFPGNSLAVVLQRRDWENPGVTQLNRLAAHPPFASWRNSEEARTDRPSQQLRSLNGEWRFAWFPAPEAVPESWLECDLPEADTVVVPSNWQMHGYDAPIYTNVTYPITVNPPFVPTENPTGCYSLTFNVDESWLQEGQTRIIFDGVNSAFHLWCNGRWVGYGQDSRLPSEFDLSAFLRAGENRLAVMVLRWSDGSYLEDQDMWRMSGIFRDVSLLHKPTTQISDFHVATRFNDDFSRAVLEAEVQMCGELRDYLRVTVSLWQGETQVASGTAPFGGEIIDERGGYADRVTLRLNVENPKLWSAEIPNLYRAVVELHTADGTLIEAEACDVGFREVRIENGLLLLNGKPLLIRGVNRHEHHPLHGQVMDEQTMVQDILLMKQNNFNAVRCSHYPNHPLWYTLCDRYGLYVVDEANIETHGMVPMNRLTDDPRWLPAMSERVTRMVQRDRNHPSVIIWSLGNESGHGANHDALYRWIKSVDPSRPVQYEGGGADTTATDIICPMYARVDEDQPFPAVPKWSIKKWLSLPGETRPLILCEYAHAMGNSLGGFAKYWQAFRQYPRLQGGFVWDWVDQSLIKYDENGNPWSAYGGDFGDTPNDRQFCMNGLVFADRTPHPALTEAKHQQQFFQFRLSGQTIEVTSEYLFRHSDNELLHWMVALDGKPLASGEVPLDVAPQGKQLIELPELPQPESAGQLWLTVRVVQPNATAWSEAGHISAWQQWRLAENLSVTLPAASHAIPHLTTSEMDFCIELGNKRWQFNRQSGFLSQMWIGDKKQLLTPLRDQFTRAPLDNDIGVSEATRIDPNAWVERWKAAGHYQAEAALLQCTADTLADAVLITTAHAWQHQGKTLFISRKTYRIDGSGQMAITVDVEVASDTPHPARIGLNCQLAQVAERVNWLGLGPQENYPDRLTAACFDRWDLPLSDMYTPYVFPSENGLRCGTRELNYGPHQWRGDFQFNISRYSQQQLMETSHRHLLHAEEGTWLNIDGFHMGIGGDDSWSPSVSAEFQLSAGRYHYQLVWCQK
Nonstructural protein 1, sequence (Q194T2 whole entry): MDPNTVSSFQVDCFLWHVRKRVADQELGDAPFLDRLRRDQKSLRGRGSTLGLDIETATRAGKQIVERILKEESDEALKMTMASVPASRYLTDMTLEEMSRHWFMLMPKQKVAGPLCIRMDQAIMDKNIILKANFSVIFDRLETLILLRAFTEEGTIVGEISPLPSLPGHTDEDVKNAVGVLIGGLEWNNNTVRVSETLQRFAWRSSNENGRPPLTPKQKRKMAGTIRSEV
Cytochrome P450 2D6, sequence (P10635 whole entry): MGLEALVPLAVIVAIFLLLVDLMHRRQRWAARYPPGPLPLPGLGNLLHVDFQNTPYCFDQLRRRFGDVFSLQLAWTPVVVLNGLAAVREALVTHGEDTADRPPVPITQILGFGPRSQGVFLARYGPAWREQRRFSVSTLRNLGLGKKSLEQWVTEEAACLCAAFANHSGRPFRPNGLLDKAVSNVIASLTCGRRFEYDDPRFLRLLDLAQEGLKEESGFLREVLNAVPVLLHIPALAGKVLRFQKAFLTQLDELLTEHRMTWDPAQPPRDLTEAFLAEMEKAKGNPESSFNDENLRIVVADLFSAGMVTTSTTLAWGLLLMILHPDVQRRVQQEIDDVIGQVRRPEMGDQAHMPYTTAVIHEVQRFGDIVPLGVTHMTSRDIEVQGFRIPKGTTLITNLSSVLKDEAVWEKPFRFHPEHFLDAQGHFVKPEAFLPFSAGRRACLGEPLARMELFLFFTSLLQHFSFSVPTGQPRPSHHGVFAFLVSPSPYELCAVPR

With CSc1nc(-c2ccccc2)nc(C(Cl)Cl)n1 the IC50 (Phosphomannomutase 2) was > 100 µM (inactive), the EC50 [1] was 2.7 µM (active) and the “Absolute IC50 (XBP1)” value (X-box-binding protein 1) was 10 µM. For the same molecule, the AC50 (INS1) was 3.69 µM (active) and the AC50 (Paired box protein Pax-8) was 2.26 µM (active).

For C/C(=N\NC(=O)CNc1cccc2ccccc12)c1ccccc1, the IC50 (SUMO-activating enzyme) was > 100 µM (inactive) and the IC50 [2] was > 50 µM (not active).

With NC(=S)N/N=C/c1ccccc1OCc1cccc(Cl)c1 the EC50 [3] was 0.323 µM (active), the IC50 (CHO-K1) was > 66.2 µM (inactive) and the IC50 [4] was > 49.7 µM (inactive). For the same molecule, the IC50 [5] was 2.71 µM (active), the IC50 [6] was 7.74 µM (active) and the AC50 (Cytochrome P450 2D6) was “inconclusive”.

With COc1ccc(N2CCN(CCCNC(=O)C(=O)c3c(C)n(C)c4ccccc34)CC2)cc1 the IC50 [7] was > 32 µM (inactive), the EC50 (Mu-type opioid receptor) was > 32 µM (inactive) and the EC50 [8] was > 32 µM (inactive). For the same molecule, the IC50 [9] was 18.3 µM (active), the EC50 (Beta-galactosidase) was > 31.5 µM (inactive) and the pIC50 [10] was 5.21.

In the case of O=C(NC(=S)NNC(=O)c1cnccn1)c1ccc(F)cc1, the EC50 (Hexokinase HKDC1) was 14.5 µM (active), the IC50 (Nonstructural protein 1) was 2.95 µM (active) and the EC50 (Hexokinase-1) was > 80 µM (inactive). The AC50 (INS1) was 0.889 µM (active).

For O=C(Nc1nccs1)c1ccc(S(=O)(=O)NCc2cccs2)cc1, the IC50 [11] was > 79.4 µM (inactive), the IC50 [12] was > 79.4 µM (inactive) and the IC50 [13] was > 79.4 µM (inactive).

For COc1ccc(-c2nc3c(c(=O)n(C)c(=O)n3C)n2CC2CC(c3ccccc3)=NO2)cc1OC (stereo not drawn), the EC50 (Hexokinase HKDC1) was 33.4 µM (inactive) and the EC50 (Hexokinase-1) was 35.1 µM (inactive).
